Measured values taken from article PMC2833169, “Anti-malarial activity of a non-piperidine library of next-generation quinoline methanols” (Malaria Journal, 2010).
≈ marks a conversion by molar mass, not a printed value. Where two headings read alike, the source gives them in different places.

Tests used:
P. falciparum strain W2 = assay: labeled hypoxanthine susceptibility assay, P. falciparum W2; format: cell-based, Plasmodium falciparum; conditions: Plasmodium falciparum
Experimental: (§1) The in vitro activities of quinoline methanols against P. falciparum strains W2, D6, TM91C235, and TM90C2A were evaluated using the traditional labeled hypoxanthine assay of Desjardins et al as modified by Milhous et al. These four P. falciparum strains were selected since they have various levels of resistance to conventional anti-malarials.

CYP450 2C19 = molecular target: T1, CYP450 2C19 (Homo sapiens, UniProt P33261); assay: CYP450 inhibition kit (drug-drug interaction), 2C19; format: biochemical
T1 construct: purchased BD Gentest (Franklin Lakes, NJ)
T1 sequence (P33261 whole entry): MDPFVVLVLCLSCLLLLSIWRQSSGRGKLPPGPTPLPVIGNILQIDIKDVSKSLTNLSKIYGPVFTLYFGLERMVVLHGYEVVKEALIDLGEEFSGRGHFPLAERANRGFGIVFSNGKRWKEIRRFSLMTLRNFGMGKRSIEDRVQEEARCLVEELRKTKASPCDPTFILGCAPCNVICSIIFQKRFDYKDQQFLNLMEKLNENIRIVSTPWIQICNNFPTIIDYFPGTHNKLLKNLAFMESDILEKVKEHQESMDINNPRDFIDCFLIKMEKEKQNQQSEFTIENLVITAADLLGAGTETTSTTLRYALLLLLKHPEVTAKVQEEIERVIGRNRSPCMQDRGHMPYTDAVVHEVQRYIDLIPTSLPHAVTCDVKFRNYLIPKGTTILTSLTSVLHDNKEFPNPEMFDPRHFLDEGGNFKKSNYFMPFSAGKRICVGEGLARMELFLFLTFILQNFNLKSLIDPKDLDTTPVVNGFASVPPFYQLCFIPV
Experimental: (§2) Low IC50s against specific cytochrome P450 isoforms may indicate the potential for a harmful drug interaction to occur in vivo with substrates of that isoform. A lack of metabolic stability in vitro may indicate potential metabolic instability in vivo, and, therefore, a shorter half-life. Drug interaction potential was evaluated in vitro using BD Gentest (Franklin Lakes, NJ) CYP450 inhibition kits as recommended by the manufacturer. Metabolic stability assessments were conducted using in vitro liver microsomes. […] The reaction is started with the addition of 1 U/mL glucose-6-phosphate dehydrogenase G6PD. The mixture is incubated on a shaking platform at 37°C, and aliquots are taken and quenched with the addition of an equal volume of cold acetonitrile at 0, 10, 20, 30, and 60 min. Samples are centrifuged at 3700 rpm for […] at 20°C to remove debris. Sample quantification is carried out by LC/MS, and metabolic half-life is calculated by log plots of the total ion chromatograph area remaining.

in vitro = conditions: mouse
Experimental: (§3) General cytotoxicity was assessed by first determining LC50 's against a rodent macrophage (RAW) cell line using the 3-(4,5-dimethylthiazole-2-yl)-2,5-diphenyltetrazolium bromide (MTT) assay as described in one of our earlier studies. This screen was conducted to identify compounds that may require de-selection due to generalized toxicity. […] In vitro neurocytotoxicity was assessed by determining LC50s against primary mouse neurons using the MTT assay as described previously. Inhibition of the A2A and A1 receptors was determined at 200 nM in duplicate by Caliper Biosciences (Hanover, Maryland).

[1] = tested on: P. falciparum strain TM91C235; assay: labeled hypoxanthine susceptibility assay, P. falciparum TM91C235; format: cell-based, Plasmodium falciparum; conditions: Plasmodium falciparum
Experimental: as §1

A2A receptor = molecular target: T2, A2A receptor (Homo sapiens, UniProt P29274); assay: inhibition of the A2A receptor at 200 nM; format: binding; conditions: 200 nM, duplicate; read-out: % A2A inhibition at 200 nM
T2 construct: Caliper Biosciences (contract screen)
T2 sequence (P29274 whole entry): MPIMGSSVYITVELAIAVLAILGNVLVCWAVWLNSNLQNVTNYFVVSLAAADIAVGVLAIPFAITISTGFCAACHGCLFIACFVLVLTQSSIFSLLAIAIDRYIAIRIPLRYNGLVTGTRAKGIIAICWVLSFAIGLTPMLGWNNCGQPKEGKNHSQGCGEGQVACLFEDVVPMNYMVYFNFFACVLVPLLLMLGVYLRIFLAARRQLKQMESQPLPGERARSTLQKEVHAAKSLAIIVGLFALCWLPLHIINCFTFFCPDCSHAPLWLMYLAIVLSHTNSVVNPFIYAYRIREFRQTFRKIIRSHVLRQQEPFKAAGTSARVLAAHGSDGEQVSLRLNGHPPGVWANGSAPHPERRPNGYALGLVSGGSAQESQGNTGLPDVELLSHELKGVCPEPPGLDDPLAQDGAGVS
Experimental: as §3

P. falciparum strain D6 = assay: labeled hypoxanthine susceptibility assay, P. falciparum D6; format: cell-based, Plasmodium falciparum; conditions: for IC90: Plasmodium falciparum
Experimental: as §1

CYP450 1A2 = molecular target: T3, CYP450 1A2 (Homo sapiens, UniProt P05177); assay: CYP450 inhibition kit (drug-drug interaction), 1A2; format: biochemical
T3 construct: purchased BD Gentest (Franklin Lakes, NJ)
T3 sequence (P05177 1-516): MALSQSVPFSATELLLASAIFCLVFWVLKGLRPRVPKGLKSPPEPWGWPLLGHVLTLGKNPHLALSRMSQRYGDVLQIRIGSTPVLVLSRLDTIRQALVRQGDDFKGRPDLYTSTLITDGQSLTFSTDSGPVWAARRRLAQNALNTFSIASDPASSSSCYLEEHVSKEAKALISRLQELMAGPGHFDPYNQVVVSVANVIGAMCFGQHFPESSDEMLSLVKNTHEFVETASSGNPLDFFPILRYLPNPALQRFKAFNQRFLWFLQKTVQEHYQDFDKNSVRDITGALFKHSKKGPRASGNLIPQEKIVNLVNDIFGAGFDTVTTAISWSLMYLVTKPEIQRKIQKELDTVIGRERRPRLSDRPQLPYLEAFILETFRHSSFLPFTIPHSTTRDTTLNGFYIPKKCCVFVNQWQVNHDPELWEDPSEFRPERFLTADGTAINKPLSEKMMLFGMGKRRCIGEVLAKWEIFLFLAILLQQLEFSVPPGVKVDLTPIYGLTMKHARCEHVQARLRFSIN
Experimental: as §2

[2] = tested on: P. falciparum strain TM90C2A; assay: labeled hypoxanthine susceptibility assay, P. falciparum TM90C2A; format: cell-based, Plasmodium falciparum; conditions: for IC90: Plasmodium falciparum, TM90C2A; for CSI (C2A/W2): ratio of IC90 C2A to IC90 W2
Experimental: as §1

CYP450 2C9 = molecular target: T4, CYP450 2C9 (Homo sapiens, UniProt P11712); assay: CYP450 inhibition kit (drug-drug interaction), 2C9; format: biochemical
T4 construct: purchased BD Gentest (Franklin Lakes, NJ)
T4 sequence (P11712 whole entry): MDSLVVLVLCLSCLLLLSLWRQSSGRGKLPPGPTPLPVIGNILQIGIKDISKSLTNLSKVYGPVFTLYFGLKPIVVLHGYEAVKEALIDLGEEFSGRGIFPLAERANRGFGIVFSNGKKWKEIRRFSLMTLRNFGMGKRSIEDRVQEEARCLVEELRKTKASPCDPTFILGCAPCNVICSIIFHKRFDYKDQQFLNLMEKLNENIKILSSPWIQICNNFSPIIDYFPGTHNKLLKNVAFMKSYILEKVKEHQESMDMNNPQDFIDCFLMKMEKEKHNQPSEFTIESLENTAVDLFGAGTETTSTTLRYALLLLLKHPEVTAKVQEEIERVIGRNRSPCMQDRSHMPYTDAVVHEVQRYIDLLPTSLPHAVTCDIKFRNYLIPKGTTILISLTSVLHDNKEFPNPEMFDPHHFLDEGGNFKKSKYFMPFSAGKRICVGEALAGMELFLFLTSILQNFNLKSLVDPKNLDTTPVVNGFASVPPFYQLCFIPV
Experimental: as §2

CYP450 3A4 = molecular target: T5, CYP450 3A4 (Homo sapiens, UniProt P08684); assay: CYP450 inhibition kit (drug-drug interaction), 3A4; format: biochemical
T5 construct: purchased BD Gentest (Franklin Lakes, NJ)
T5 sequence (P08684 whole entry): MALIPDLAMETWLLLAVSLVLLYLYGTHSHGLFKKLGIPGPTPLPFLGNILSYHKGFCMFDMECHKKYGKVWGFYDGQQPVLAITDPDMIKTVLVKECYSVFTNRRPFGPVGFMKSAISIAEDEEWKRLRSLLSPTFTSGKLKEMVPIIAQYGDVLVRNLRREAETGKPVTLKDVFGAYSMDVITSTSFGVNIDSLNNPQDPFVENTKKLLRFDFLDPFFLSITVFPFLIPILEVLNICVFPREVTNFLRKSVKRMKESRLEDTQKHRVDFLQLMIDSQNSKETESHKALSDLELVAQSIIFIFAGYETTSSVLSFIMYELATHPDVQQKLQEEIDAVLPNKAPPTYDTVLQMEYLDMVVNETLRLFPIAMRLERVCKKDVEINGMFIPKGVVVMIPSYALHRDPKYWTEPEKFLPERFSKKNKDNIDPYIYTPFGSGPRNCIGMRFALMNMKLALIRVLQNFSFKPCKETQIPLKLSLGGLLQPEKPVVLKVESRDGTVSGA
Experimental: as §2

A1 receptor = molecular target: T6, A1 receptor (Homo sapiens, UniProt P30542); assay: inhibition of the A1 receptor at 200 nM; format: binding; conditions: duplicate
T6 construct: Caliper Biosciences (contract screen)
T6 sequence (P30542 1-326): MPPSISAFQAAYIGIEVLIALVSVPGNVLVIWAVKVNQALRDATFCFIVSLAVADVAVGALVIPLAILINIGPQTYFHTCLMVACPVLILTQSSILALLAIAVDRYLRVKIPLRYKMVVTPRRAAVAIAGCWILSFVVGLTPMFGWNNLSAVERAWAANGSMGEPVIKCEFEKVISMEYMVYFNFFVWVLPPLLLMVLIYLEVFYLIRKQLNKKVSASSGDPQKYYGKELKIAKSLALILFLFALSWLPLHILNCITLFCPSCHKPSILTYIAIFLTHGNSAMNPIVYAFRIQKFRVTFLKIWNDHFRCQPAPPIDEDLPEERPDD
Experimental: as §3

[3] = D6, read-out: IC90 Pf D6, P. falciparum D6, mefloquine: historical mean +/- SD (n)
[4] = D6, read-out: PF D6 IC90, P. falciparum D6
[5] = read-out: Pf C2A IC90 nM values calculated using MW in Column C

Structure (SMILES)	IC90 (P. falciparum strain W2; W2, read-out: IC90 Pf W2) [µg/mL]	IC90 (P. falciparum strain W2; W2, read-out: PF W2 IC90) [µg/mL]	IC50 (CYP450 2C19) [µM]	CC50 (in vitro) [µM]	IC90 ([1]; read-out: IC90 Pf C235) [µg/mL]	IC90 ([1]; read-out: PF C235 IC90) [µg/mL]	inhibition at 0.2 µM (A2A receptor) [%]	IC90 (P. falciparum strain D6; [3]) [µg/mL]	IC90 (P. falciparum strain D6; [4]) [µg/mL]	IC50 (CYP450 1A2) [µM]	IC90 ([2]; read-out: IC90 Pf C2A) [µg/mL]	IC90 ([2]; read-out: IC90 PfC2A) [nM]	IC90 ([2]; read-out: PF C2A IC90) [µg/mL]	IC90 [2, 5] [nM]	CSI (C2A/W2) [2]	IC50 (CYP450 2C9) [µM]	IC50 (CYP450 3A4) [µM]	inhibition at 0.2 µM (A1 receptor) [%]	IC90 Pf D6 (P. falciparum strain D6; P. falciparum D6, mefloquine: historical mean +/- SD (n)) [µg/mL]
CNCC(O)c1cc(C(F)(F)F)nc2c(C(F)(F)F)cccc12 (stereo not drawn) [WR308245]	0.017 (≈ 0.0503 µM)	0.0168 (≈ 0.0495 µM)	33	> 120	0.058 (≈ 0.171 µM)	0.0576 (≈ 0.17 µM)	0	0.045 (≈ 0.133 µM)	0.0452 (≈ 0.134 µM)	1.8	0.08	236	0.0798	236	4.8	> 40	26	0	
CC(C)NCC(O)c1cc(C(F)(F)F)nc2c(C(F)(F)F)cccc12 (stereo not drawn) [WR308257]	0.0047 (≈ 0.0128 µM)	0.00465 (≈ 0.0127 µM)	26	> 120	0.023 (≈ 0.0628 µM)	0.0234 (≈ 0.0638 µM)	17	0.023 (≈ 0.0628 µM)	0.0232 (≈ 0.0634 µM)	3.9	0.039	107	0.0392	107	8.4	37	> 40	79	
CSCCCNCC(O)c1cc(C(F)(F)F)nc2c(C(F)(F)F)cccc12 (stereo not drawn) [WR308278]	0.0097 (≈ 0.0235 µM)	0.00969 (≈ 0.0235 µM)	3.6	> 120	0.039 (≈ 0.0946 µM)	0.0393 (≈ 0.0953 µM)	1	0.036 (≈ 0.0873 µM)	0.0363 (≈ 0.0881 µM)	3.5	0.054	132	0.0544	132	5.6	6.3	16	9.4	
OC(CNCCNCc1ccccc1)c1cc(C(F)(F)F)nc2c(C(F)(F)F)cccc12 (stereo not drawn) [WR308396]	0.0062 (≈ 0.0136 µM)		5.8	52	0.04 (≈ 0.0874 µM)	0.0401 (≈ 0.0877 µM)	0	0.03 (≈ 0.0656 µM)	0.0293 (≈ 0.0639 µM)	5.4	0.048	105	0.048	105	7.7	14	3.3	2.9	0.029 (≈ 0.0634 µM)
